Results on 2 molecules are retold here after US8394356B2, “Diagnostic imaging contrast agents with extended blood retention” (Lantheus Medical Imaging, Inc., priority 1995, dated 2013).

Data set [1] concerns the target T1, HSA (Homo sapiens, UniProt P02768). The data set is described as follows: HSA binding by equilibrium dialysis or ultrafiltration, 4.5% weight/volume HSA, pH 7.4 buffer. Background: In equilibrium dialysis free small molecules cross a membrane that holds back macromolecules.
Text: (§1) In this application, the measurement of percent binding of the contrast agent to HSA has an error of approximately ±5%.
The nature of data set [2]: Rat plasma pharmacokinetic experiment (Gd153 radiolabeled complexes, tail vein injection).
Experimental: In this application, blood half-life data, as measured by AUC-conc., represents experimentation in rats.
(§2) Rats were injected intravenously (tail vein) with 0.1 mmol/kg of the Gd^153 radiolabeled complexes. Plasma concentrations were determined over 30 minutes and fit to a standard bi-exponential two-compartment model. […] In addition, the 1/T1s of the plasma samples were recorded (at 20 MHZ, 37° C.) to assess the efficacy as MRI agents.
The nature of data set [3]: 1/T1 of rat plasma samples after intravenous injection (efficacy as MRI agents). Format: in vivo. Particulars: rats, 0.1 mmol/kg i.v., plasma 1/T1 at 20 MHZ, 37° C., first 10 minutes.
Experimental: as §2
Data set [4] concerns the target T1, HSA.
Text: as §1

Marks after values point to notes of the source that are not given here.

T1 sequence (P02768 25-609): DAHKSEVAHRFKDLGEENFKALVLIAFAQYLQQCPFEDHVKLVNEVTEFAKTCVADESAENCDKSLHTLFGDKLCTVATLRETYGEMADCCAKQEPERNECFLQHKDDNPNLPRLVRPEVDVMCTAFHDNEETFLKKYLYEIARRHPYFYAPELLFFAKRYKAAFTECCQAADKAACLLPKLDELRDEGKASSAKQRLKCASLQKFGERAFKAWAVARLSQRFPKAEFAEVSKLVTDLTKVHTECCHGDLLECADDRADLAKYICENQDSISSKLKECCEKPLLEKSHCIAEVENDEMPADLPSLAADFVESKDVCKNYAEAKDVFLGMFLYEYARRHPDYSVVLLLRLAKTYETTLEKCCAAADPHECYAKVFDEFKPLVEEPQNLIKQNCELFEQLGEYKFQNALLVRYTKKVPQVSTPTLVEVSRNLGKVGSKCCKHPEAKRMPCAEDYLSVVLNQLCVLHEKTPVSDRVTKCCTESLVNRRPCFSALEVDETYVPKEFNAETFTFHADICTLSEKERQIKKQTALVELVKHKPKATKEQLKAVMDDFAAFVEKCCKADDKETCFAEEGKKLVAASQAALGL

Usually fraction unbound stands for the share of the substance not bound to proteins or other matrix. A higher fraction unbound goes with much free substance. `O=C(O)CN(CCN(CC(=O)O)CC(COP(=O)(O)OCCCCCCCCCCc1ccccc1)N(CC(=O)O)CC(=O)O)CC(=O)O` (stereo not drawn) yielded a fraction unbound at HSA [1] (human, 4.5% weight/volume human serum albumin (HSA) solution) of less than 0.05. For the same molecule, the “AUC-conc. (for 0 to 10 minutes) greater than that of analogue” value in data set [2] (0 to 10 minutes, versus analogue drawing 27) was not below 100%.
For the molecule `O=C([O-])CN(CCN(CC(=O)[O-])CC(=O)O)CCN(CC(=O)[O-])CC(=O)O.[Gd+3]` [DTPA, gadolinium diethylenetriamine-pentaacetic acid], in data set [3], the AUC-1/T1 is 27 s^−1 * min. On HSA [4], the “binding to HSA (in words)” value is on record as “little or no binding to HSA”. Further, the “% bound to HSA” value on HSA [1] (4.5% HSA, error approx ±5%) was 0%. For the same molecule, in data set [2] (elimination half-life, rats, 0.1 mmol/kg i.v. tail vein, plasma over 30 min, bi-exponential two-compartment model), the t1/2 came out at 15.0 min. Besides, the blood half-life in data set [2] (rats) was determined as 15 min. The AUC-conc in data set [2] (rats, 0.1 mmol/kg i.v., first 10 minutes, error approx ±10%) came to 3.5 mM·min. The “AUC-conc. from 0 to 10 minutes” value in data set [2] (two rats, 0.1 mmol/kg tail vein, Gd153-labeled, calculated with KaleidaGraph) was 3.5 mM·min.
